{"source": "paper PMC3986099", "about": "“Development of a Radioiodinated Triazolopyrimidine Probe for Nuclear Medical Imaging of Fatty Acid Binding Protein 4” (PLoS ONE, 2014)", "key": {"his-tagged FABP3": {"target": "T1, his-tagged FABP3 (Homo sapiens, UniProt P05413)", "T1 construct": "purchased Cayman Chemical Company", "T1 sequence (P05413 whole entry)": "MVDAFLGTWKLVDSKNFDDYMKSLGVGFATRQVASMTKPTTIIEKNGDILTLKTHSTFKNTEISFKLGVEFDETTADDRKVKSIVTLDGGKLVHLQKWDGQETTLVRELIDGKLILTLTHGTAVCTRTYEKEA", "test": "Selectivity binding assay with FABP immobilized on Ni-NTA magnetic agarose beads", "details": "immobilized FABP3, 2 hr, room temperature", "description": "For the selectivity binding assay, his-tagged FABP3 (0.75 mg/ml), FABP4 (0.75 mg/ml) and FABP5 (0.70 mg/ml) in 50 mM phosphate buffer containing 100 mM NaCl (20% glycerol, v/v, pH = 7.2) were used. Immobilization was performed following the manufacturer's procedures. Each solution of his-tagged FABP3 ([…], 1.5 µg), FABP4 (0.002 ml, 1.5 µg) or FABP5 (0.002 ml, 1.4 µg) was incubated with 0.02 ml Ni-NTA Magnetic Agarose Beads (Qiagen) and 0.5 ml protein binding buffer (50 mM NaH2PO4, 300 mM NaCl, 10 mM imidazole, pH = 8.0) at room temperature for 1 hr. After supernatant removal, protein binding buffer with 1% BSA was added, and the mixture was incubated at room temperature for 30 min. After removal of the supernatant, 0.4 ml of interaction buffer (50 mM NaH2PO4, 300 mM NaCl, 10 mM imidazole, and 0.005% Tween, v/v, pH = 8.0) and 0.05 ml [^125I]TAP1 (0.01 MBq) in interaction buffer (5% ethanol, v/v) were added. For measurement of non-specific binding, 0.05 ml of nonradioactive TAP1 in interaction buffer (5% ethanol, v/v, 11.3 µM) was added with the [^125I]TAP1. After incubation at room temperature for 2 hr, the supernatants were removed, and the beads washed with interaction buffer (5% ethanol, v/v). The radioactivity of beads in the tubes was measured with a well-type γ-counter (1480 Wizard3, PerkinElmer Japan Co., Osaka, Japan). Binding ratios were calculated as (radioactivity of beads)/(total applied radioactivity)/(protein abundance on beads)×100 (%Dose/µg protein)."}, "[1]": {"test": "Partition coefficient, 1-octanol/phosphate buffer pH 7.4", "format": "physicochemical", "details": "1-octanol/phosphate buffer (PBS(-))", "description": "Experimental determination of the [^125I]TAP1 partition coefficient was performed with 1-octanol and phosphate buffer at pH 7.4. The two phases were pre-saturated, and a mixture solution of 3.0 ml 1-octanol and 3.0 ml PBS (-) was added to a tube containing 0.02 ml [^125I]TAP1 in PBS (-) (0.024 MBq, 5% ethanol, v/v). The test tube was vortexed and centrifuged (1,000×g, 5 min). Aliquots from the 1-octanol and buffer phases (0.5 ml) were counted with a well-type γ-counter. This procedure was repeated three times. The partition coefficient was calculated from the ratio of radioactivity in the organic and aqueous layers."}, "C6 tumors": {"test_system": "C6 tumors", "test": "Biodistribution in C6 bearing mice", "format": "in vivo, Balb/c nu-nu mice", "details": "for Blood / Heart / Intestine / Kidney / Liver / Lung / Muscle / Pancreas / Spleen / Stomach / Tumor / T/B ratio / T/M ratio: C6 bearing mice, i.v.; for T/B ratio: tumor to blood; for T/M ratio: tumor to muscle", "description": "C6 cells were suspended in PBS(-) followed by subcutaneous inoculation into the right hind legs of Balb/c nu-nu mice (5×10^6 cells/100 µL).\nA saline solution (5% ethanol, v/v) of [^125I]TAP1 (0.06 MBq) was injected intravenously into the tail vein of C6 cell implantation model Balb/c nu-nu mice (males, 8 weeks old). The mice were sacrificed at various post-injection time points and organs, including tumor tissues, were removed. The weight and radioactivity of the organs were measured as mentioned above. Several model mice were sacrificed 3 hr after the injection by transcardial perfusion of saline (20 ml) under anesthesia with chloral hydrate. The weight and radioactivity of the removed organs, including tumor tissues, were measured as mentioned above."}}, "data": [{"compound": "O=c1cc(COc2cccc([125I])c2)[nH]c2nc(-c3ccccc3)nn12", "note": "[[^125I]TAP1]", "values": [{"measurement": "binding to FABP3", "setting": "his-tagged FABP3", "result": "1.4±0.5", "unit": "% dose/µg protein"}, {"measurement": "logP", "setting": "[1]", "result": "2.7 ± 0.1"}, {"measurement": "radioactivity accumulation in tumors (peak)", "setting": "C6 tumors; 15 min after injection", "result": "2.26±0.45", "unit": "%ID/g"}, {"measurement": "radioactivity accumulation in C6 tumors", "setting": "C6 tumors; 3 hr after injection", "result": "1.37±0.24", "unit": "% dose/g"}, {"measurement": "tumor accumulation, decapitation", "setting": "C6 tumors; 3 hr after injection, sacrificed by decapitation", "result": "0.85±0.18", "unit": "%ID/g"}, {"measurement": "tumor accumulation, transcardial perfusion", "setting": "C6 tumors; 3 hr after injection, sacrificed by transcardial perfusion", "result": "0.96±0.18", "unit": "%ID/g"}, {"measurement": "tumor to muscle ratio", "setting": "C6 tumors; 3 hr after probe injection", "result": 3.6}, {"measurement": "Blood", "setting": "C6 tumors; 5 min", "result": "10.40±2.34", "unit": "% injected dose per gram"}, {"measurement": "Heart", "setting": "C6 tumors; 5 min", "result": "3.36±0.64", "unit": "% injected dose per gram"}, {"measurement": "Intestine", "setting": "C6 tumors; 5 min", "result": "2.35±0.34", "unit": "% injected dose per gram"}, {"measurement": "Kidney", "setting": "C6 tumors; 5 min", "result": "29.66±2.24", "unit": "% injected dose per gram"}, {"measurement": "Liver", "setting": "C6 tumors; 5 min", "result": "46.01±5.99", "unit": "% injected dose per gram"}, {"measurement": "Lung", "setting": "C6 tumors; 5 min", "result": "6.76±1.12", "unit": "% injected dose per gram"}, {"measurement": "Muscle", "setting": "C6 tumors; 5 min", "result": "1.05±0.33", "unit": "% injected dose per gram"}, {"measurement": "Pancreas", "setting": "C6 tumors; 5 min", "result": "2.55±0.31", "unit": "% injected dose per gram"}, {"measurement": "Spleen", "setting": "C6 tumors; 5 min", "result": "2.20± 0.44", "unit": "% injected dose per gram"}, {"measurement": "Stomach", "setting": "C6 tumors; 5 min", "result": "0.42±0.16", "unit": "% injected dose per organ"}, {"measurement": "Tumor", "setting": "C6 tumors; 5 min", "result": "1.94±0.44", "unit": "% injected dose per gram"}, {"measurement": "Blood", "setting": "C6 tumors; 15 min", "result": "6.60±0.61", "unit": "% injected dose per gram"}, {"measurement": "Heart", "setting": "C6 tumors; 15 min", "result": "2.45±0.41", "unit": "% injected dose per gram"}, {"measurement": "Intestine", "setting": "C6 tumors; 15 min", "result": "5.08±0.95", "unit": "% injected dose per gram"}, {"measurement": "Kidney", "setting": "C6 tumors; 15 min", "result": "62.82±9.70", "unit": "% injected dose per gram"}, {"measurement": "Liver", "setting": "C6 tumors; 15 min", "result": "37.58±2.88", "unit": "% injected dose per gram"}, {"measurement": "Lung", "setting": "C6 tumors; 15 min", "result": "4.26±0.19", "unit": "% injected dose per gram"}, {"measurement": "Muscle", "setting": "C6 tumors; 15 min", "result": "0.74±0.15", "unit": "% injected dose per gram"}, {"measurement": "Pancreas", "setting": "C6 tumors; 15 min", "result": "1.20±0.20", "unit": "% injected dose per gram"}, {"measurement": "Spleen", "setting": "C6 tumors; 15 min", "result": "1.09±0.10", "unit": "% injected dose per gram"}, {"measurement": "Stomach", "setting": "C6 tumors; 15 min", "result": "1.02±0.38", "unit": "% injected dose per organ"}, {"measurement": "Tumor", "setting": "C6 tumors; 15 min", "result": "2.26±0.45", "unit": "% injected dose per gram"}, {"measurement": "Blood", "setting": "C6 tumors; 30 min", "result": "4.74±1.17", "unit": "% injected dose per gram"}, {"measurement": "Heart", "setting": "C6 tumors; 30 min", "result": "1.76±0.40", "unit": "% injected dose per gram"}, {"measurement": "Intestine", "setting": "C6 tumors; 30 min", "result": "7.97±1.32", "unit": "% injected dose per gram"}, {"measurement": "Kidney", "setting": "C6 tumors; 30 min", "result": "77.74±8.14", "unit": "% injected dose per gram"}, {"measurement": "Liver", "setting": "C6 tumors; 30 min", "result": "42.20±1.51", "unit": "% injected dose per gram"}, {"measurement": "Lung", "setting": "C6 tumors; 30 min", "result": "3.16±1.07", "unit": "% injected dose per gram"}, {"measurement": "Muscle", "setting": "C6 tumors; 30 min", "result": "0.57±0.12", "unit": "% injected dose per gram"}, {"measurement": "Pancreas", "setting": "C6 tumors; 30 min", "result": "0.88±0.13", "unit": "% injected dose per gram"}, {"measurement": "Spleen", "setting": "C6 tumors; 30 min", "result": "0.84±0.14", "unit": "% injected dose per gram"}, {"measurement": "Stomach", "setting": "C6 tumors; 30 min", "result": "0.60±0.13", "unit": "% injected dose per organ"}, {"measurement": "Tumor", "setting": "C6 tumors; 30 min", "result": "1.63±0.38", "unit": "% injected dose per gram"}, {"measurement": "Blood", "setting": "C6 tumors; 60 min", "result": "3.25±0.66", "unit": "% injected dose per gram"}, {"measurement": "Heart", "setting": "C6 tumors; 60 min", "result": "1.12±0.17", "unit": "% injected dose per gram"}, {"measurement": "Intestine", "setting": "C6 tumors; 60 min", "result": "11.59±0.20", "unit": "% injected dose per gram"}, {"measurement": "Kidney", "setting": "C6 tumors; 60 min", "result": "71.54±8.25", "unit": "% injected dose per gram"}, {"measurement": "Liver", "setting": "C6 tumors; 60 min", "result": "30.46±3.28", "unit": "% injected dose per gram"}, {"measurement": "Lung", "setting": "C6 tumors; 60 min", "result": "2.19±0.52", "unit": "% injected dose per gram"}, {"measurement": "Muscle", "setting": "C6 tumors; 60 min", "result": "0.37±0.05", "unit": "% injected dose per gram"}, {"measurement": "Pancreas", "setting": "C6 tumors; 60 min", "result": "0.63±0.08", "unit": "% injected dose per gram"}, {"measurement": "Spleen", "setting": "C6 tumors; 60 min", "result": "0.65±0.08", "unit": "% injected dose per gram"}, {"measurement": "Stomach", "setting": "C6 tumors; 60 min", "result": "0.73±0.40", "unit": "% injected dose per organ"}, {"measurement": "Tumor", "setting": "C6 tumors; 60 min", "result": "1.09±0.05", "unit": "% injected dose per gram"}, {"measurement": "Blood", "setting": "C6 tumors; 180 min", "result": "3.29±0.40", "unit": "% injected dose per gram"}, {"measurement": "Heart", "setting": "C6 tumors; 180 min", "result": "1.14±0.04", "unit": "% injected dose per gram"}, {"measurement": "Intestine", "setting": "C6 tumors; 180 min", "result": "15.76±3.03", "unit": "% injected dose per gram"}, {"measurement": "Kidney", "setting": "C6 tumors; 180 min", "result": "73.44±4.42", "unit": "% injected dose per gram"}, {"measurement": "Liver", "setting": "C6 tumors; 180 min", "result": "33.97±4.98", "unit": "% injected dose per gram"}, {"measurement": "Lung", "setting": "C6 tumors; 180 min", "result": "1.88±0.25", "unit": "% injected dose per gram"}, {"measurement": "Muscle", "setting": "C6 tumors; 180 min", "result": "0.39±0.09", "unit": "% injected dose per gram"}, {"measurement": "Pancreas", "setting": "C6 tumors; 180 min", "result": "0.70±0.13", "unit": "% injected dose per gram"}, {"measurement": "Spleen", "setting": "C6 tumors; 180 min", "result": "0.82±0.11", "unit": "% injected dose per gram"}, {"measurement": "Stomach", "setting": "C6 tumors; 180 min", "result": "0.89±0.40", "unit": "% injected dose per organ"}, {"measurement": "Tumor", "setting": "C6 tumors; 180 min", "result": "1.37±0.24", "unit": "% injected dose per gram"}, {"measurement": "T/B ratio", "setting": "C6 tumors; 5 min", "result": "0.19±0.04"}, {"measurement": "T/B ratio", "setting": "C6 tumors; 15 min", "result": "0.34±0.06"}, {"measurement": "T/B ratio", "setting": "C6 tumors; 30 min", "result": "0.35±0.03"}, {"measurement": "T/B ratio", "setting": "C6 tumors; 60 min", "result": "0.34±0.05"}, {"measurement": "T/B ratio", "setting": "C6 tumors; 180 min", "result": "0.42±0.04"}, {"measurement": "T/M ratio", "setting": "C6 tumors; 5 min", "result": "1.94±0.52"}, {"measurement": "T/M ratio", "setting": "C6 tumors; 15 min", "result": "3.08±0.10"}, {"measurement": "T/M ratio", "setting": "C6 tumors; 30 min", "result": "2.96±0.73"}, {"measurement": "T/M ratio", "setting": "C6 tumors; 60 min", "result": "2.95±0.41"}, {"measurement": "T/M ratio", "setting": "C6 tumors; 180 min", "result": "3.60±0.98"}]}]}
